Source: ChEMBL document CHEMBL4000226, “Inhibitory potential of flavonoids on PtdIns(3,4,5)P3 binding with the phosphoinositide-dependent kinase 1 pleckstrin homology domain” (Bioorg Med Chem Lett, 2017)
The source made the active and inactive calls. The calls are words filed in the database; no cut-off is given here.

Each compound was assayed against 3-phosphoinositide-dependent protein kinase 1 (Homo sapiens) (UniProt O15530) (assay: Inhibition of sucrose loaded POPC/POPE/POPS/PtdIns(3,4,5)P3 (59:20:20:1) liposome binding to eGFP-fused PDK1 PH domain (unknown origin) expressed in Escherichia coli BL21 at 10 uM after 10 mins by fluorescence spectrophotometry based pull down assay).
Chain of 3-phosphoinositide-dependent protein kinase 1 (Homo sapiens) (O15530 whole entry, looked up, the tested form may be a part): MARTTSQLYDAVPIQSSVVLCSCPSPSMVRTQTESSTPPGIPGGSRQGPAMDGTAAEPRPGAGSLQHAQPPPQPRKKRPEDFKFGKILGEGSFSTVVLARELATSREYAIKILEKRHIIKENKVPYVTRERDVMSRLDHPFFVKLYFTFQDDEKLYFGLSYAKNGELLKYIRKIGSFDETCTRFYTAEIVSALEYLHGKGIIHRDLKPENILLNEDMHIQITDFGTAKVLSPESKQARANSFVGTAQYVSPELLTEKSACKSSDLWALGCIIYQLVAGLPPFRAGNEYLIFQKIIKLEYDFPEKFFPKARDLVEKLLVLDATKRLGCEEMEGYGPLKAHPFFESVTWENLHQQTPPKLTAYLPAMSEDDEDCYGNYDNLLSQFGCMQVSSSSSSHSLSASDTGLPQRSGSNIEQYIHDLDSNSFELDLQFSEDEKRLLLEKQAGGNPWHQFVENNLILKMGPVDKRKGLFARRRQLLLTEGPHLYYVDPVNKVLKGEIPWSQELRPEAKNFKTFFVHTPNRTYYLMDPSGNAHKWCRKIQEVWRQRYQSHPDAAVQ
With `O=c1cc(-c2ccccc2)oc2ccccc12` the inhibition was “Active”.
With `O=c1c(O)c(-c2ccccc2)oc2cc(O)cc(O)c12` the inhibition was “Active”.
In the case of `O=c1cc(-c2ccccc2)oc2cc(O)cc(O)c12`, the inhibition is reported as “Active”.
For `COc1cc(OC)c2c(=O)cc(-c3ccccc3)oc2c1`, the inhibition was “Active”.
For `COc1ccc2c(=O)cc(-c3ccccc3)oc2c1OC`, the inhibition was “Active”.
In the case of `O=c1cc(-c2ccc(O)cc2)oc2cc(O)ccc12`, the inhibition is reported as “Active”.
In the case of `O=c1c(O)c(-c2ccc(O)c(O)c2)oc2cc(O)ccc12`, the inhibition is reported as “Active”.

These compounds were tested against 3-phosphoinositide-dependent protein kinase 1 (Homo sapiens) (UniProt O15530) (assay: Inhibition of sucrose loaded POPC/POPE/POPS/PtdIns(3,4,5)P3 (59:20:20:1) liposome binding to eGFP-fused PDK1 PH domain (unknown origin) expressed in Escherichia coli BL21 after 10 mins by fluorescence spectrophotometry based pull down assay).
With `O=c1c(O)c(-c2cc(O)c(O)c(O)c2)oc2cc(O)cc(O)c12` the inhibition was “Dose-dependent effect”.
`O=c1c(O)c(-c2ccc(O)c(O)c2)oc2cc(O)cc(O)c12` was tested, and the inhibition was “Dose-dependent effect”.
In the case of `O=c1c(O)c(-c2ccc(O)c(O)c2)oc2cc(O)ccc12`, the inhibition is reported as “Dose-dependent effect”.
With `O=c1c(O)c(-c2ccc(O)c(O)c2)oc2c(O)c(O)cc(O)c12` the inhibition was “Dose-dependent effect”.
